Laboratory results as given in US20240343694A1, “PYRIMIDINE DERIVATIVE, METHOD FOR PREPARING SAME, AND PHARMACEUTICAL COMPOSITION FOR PREVENTING OR TREATING CANCER COMPRISING SAME AS ACTIVE INGREDIENT” (KOREA RESERARCH INSTITUTE OF CHEMICAL TECHNOLOGY, priority 2021, published 2024).

What was measured:
Format in all cases: biochemical
Details in all cases: recombinant enzyme, 37° C. for 2 hours
HER2 A775_G776insYVMA = HER2 A775_G776insYVMA (Homo sapiens (Human), UniProt P04626, INS775YVMA); assay: HTRF inhibitory activity against HER2 mutant enzyme
HER2 A775_G776insYVMA, sequence (P04626 other isoform, or with tags, fused parts or gaps del 1-675/ins YVMA behind 775 limits assumed): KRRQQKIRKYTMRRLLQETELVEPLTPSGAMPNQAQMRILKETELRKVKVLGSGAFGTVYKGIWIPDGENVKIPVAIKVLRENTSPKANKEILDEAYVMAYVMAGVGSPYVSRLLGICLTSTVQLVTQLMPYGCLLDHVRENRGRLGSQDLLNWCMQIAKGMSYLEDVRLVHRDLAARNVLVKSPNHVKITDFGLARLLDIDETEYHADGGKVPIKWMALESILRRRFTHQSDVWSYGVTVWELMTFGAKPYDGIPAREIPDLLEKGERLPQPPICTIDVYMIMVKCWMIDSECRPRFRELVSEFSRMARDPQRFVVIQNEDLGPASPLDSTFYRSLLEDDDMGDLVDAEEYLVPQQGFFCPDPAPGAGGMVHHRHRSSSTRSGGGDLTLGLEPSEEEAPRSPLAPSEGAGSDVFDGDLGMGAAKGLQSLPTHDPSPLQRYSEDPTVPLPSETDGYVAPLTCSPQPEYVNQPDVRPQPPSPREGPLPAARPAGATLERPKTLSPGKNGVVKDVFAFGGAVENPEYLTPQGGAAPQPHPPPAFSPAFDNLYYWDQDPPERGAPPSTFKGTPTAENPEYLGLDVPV
Method: The activity of the compounds of the present invention against HER mutant enzymes was measured using the HTRF system purchased by Cisbio as follows. As a HER2 mutant enzyme, the HER2 A775_G776insYVMA mutant enzyme was used by purchasing a recombinant protein provided by Carna Biosciences.
(§1) The composition of the assay buffer used for activity measurement was 50 mM tris-HCl pH 7.5, 100 mM NaCl, 7.5 mM MgCl2, 3 mM KCl, 0.01% tween 20, 0.1% BSA, and 1 mM DTT. In addition thereto, the enzymatic reaction was performed using a peptide substrate labeled with ATP at a concentration of […] and biotin at a concentration of […]. The analysis of the activity inhibitory effect of the compounds on HER2 A775_G776insYVMA mutation was performed according to the following method. • Component 1:4 μL of HER2 A775_G776insYVMA mutant enzyme • Component 2:2 μL of compound solution • Component 3:4 μL of ATP and a biotin labeled peptide
The enzyme reaction begins by first mixing component 1 and component 2 and then adding component 3 thereto. After the reaction at 37° C. for 2 hours, […] of a measurement solution consisting of streptavidin-XL665 and a europium-labeled anti-phosphotyrosine antibody purchased from Cisbio was added to the enzyme reaction solution and reacted at room temperature for 1 hour. […] The measured values at 7 compound concentrations were analyzed using the Prism program (version 5.01, Graphpad Software, Inc.), and the IC50 (μM) values, which are measures of the compounds' inhibitory ability, were calculated.

EGFR del19 = EGFR del19 (Homo sapiens (Human), UniProt P00533, DEL746-750); assay: HTRF inhibitory activity against EGFR mutant enzyme (EGFR del19)
EGFR del19, sequence (P00533 other isoform, or with tags, fused parts or gaps del 1-668/del 746-750 limits assumed): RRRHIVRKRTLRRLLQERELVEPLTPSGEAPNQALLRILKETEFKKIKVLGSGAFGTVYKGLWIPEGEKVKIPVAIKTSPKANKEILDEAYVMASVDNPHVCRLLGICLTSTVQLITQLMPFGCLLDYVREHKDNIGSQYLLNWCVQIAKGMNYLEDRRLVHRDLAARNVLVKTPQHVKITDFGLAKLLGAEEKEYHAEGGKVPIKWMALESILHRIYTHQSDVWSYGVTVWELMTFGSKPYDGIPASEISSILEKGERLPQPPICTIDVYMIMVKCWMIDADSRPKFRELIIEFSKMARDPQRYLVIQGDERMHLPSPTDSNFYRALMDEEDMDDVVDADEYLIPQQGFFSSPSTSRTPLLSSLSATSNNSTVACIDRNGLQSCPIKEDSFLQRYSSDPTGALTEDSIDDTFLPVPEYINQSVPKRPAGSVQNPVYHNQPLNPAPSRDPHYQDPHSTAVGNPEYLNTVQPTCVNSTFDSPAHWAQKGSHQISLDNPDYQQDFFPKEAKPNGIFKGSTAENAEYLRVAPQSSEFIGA
Method: (§2) The activity of the compounds of the present invention against EGFR mutant enzymes was measured using the HTRF system purchased from Cisbio as follows. For an EGFR mutant enzyme, the EGFR del19 enzyme was a recombinant protein purchased from Carna Biosciences, and the EGFR A763_Y764insFHEA enzyme was a recombinant protein purchased from SignalChem, respectively.
as §1, with “An” for “In addition thereto, the”, “the” for “the activity”, “EGFR activity” for “HER2 A775_G776insYVMA mutation”, “EGFR” for “HER2 A775_G776insYVMA”
(§3) The enzyme reaction begins by first mixing component 1 and component 2 and then adding component 3 thereto. After the reaction at 37° C. for 2 hours, […] of a measurement solution consisting of streptavidin-XL665 and a europium-labeled anti-phosphotyrosine antibody purchased from Cisbio was added to the enzyme reaction solution and reacted at room temperature for 1 hour. Finally, the ratio of fluorescence values at 615 nm and 665 nm was measured using Perkin-Elmer's Envision instrument to calculate enzyme activity and confirm the inhibitory ability of the compounds. The measured values at 7 compound concentrations were analyzed using the Prism program (version 5.01, Graphpad Software, Inc.), and the IC50 (μM) values, which are measures of the compounds' inhibitory activity, were calculated.

EGFR A763_Y764insFHEA = EGFR A763_Y764insFHEA (Homo sapiens (Human), UniProt P00533, INS763FHEA); assay: HTRF inhibitory activity against EGFR mutant enzyme (EGFR A763_Y764insFHEA)
EGFR A763_Y764insFHEA, sequence (P00533 other isoform, or with tags, fused parts or gaps del 1-694/ins FHEA behind 763 limits assumed): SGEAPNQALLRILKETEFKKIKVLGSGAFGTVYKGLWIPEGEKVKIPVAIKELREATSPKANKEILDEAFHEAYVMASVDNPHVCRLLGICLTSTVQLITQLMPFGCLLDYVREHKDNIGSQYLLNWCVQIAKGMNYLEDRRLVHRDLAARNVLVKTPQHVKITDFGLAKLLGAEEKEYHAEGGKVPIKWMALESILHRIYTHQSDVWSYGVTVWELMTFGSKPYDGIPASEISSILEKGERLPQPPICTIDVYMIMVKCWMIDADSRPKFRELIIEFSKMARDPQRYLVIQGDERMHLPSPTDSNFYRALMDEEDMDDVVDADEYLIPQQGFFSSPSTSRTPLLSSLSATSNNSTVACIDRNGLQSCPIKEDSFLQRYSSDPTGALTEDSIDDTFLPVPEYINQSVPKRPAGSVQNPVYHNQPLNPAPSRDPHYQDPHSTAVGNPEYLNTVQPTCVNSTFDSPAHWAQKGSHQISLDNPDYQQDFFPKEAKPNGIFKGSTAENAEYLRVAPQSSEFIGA
Method: as §2
as §1, with “An” for “In addition thereto, the”, “the” for “the activity”, “EGFR activity” for “HER2 A775_G776insYVMA mutation”, “EGFR” for “HER2 A775_G776insYVMA”
as §3

Structure (SMILES)	IC50 (HER2 A775_G776insYVMA)	IC50 (EGFR del19)	IC50 (EGFR A763_Y764insFHEA)
C=CC(=O)Nc1cc(Nc2nccc(Nc3ccccc3NS(=O)(=O)c3ccc(C)cc3)n2)c(OC)cc1N(C)CCN(C)C [Example 9, N-(2-((2-(dimethylamino)ethyl)(methyl)amino)-4-methoxy-5-((4-((2-((4-methylphenyl)sulfonamido)phenyl)amino)pyrimidin-2-yl)amino)phenyl)acrylamide]	2400 nM	20 nM	90 nM
C=CC(=O)Nc1cc(Nc2ncc(F)c(Nc3ccccc3NS(=O)(=O)c3ccccc3)n2)c(OC)cc1N(C)CCN(C)C [Example 14, N-(2-((2-(dimethylamino)ethyl)(methyl)amino)-5-((5-fluoro-4-((2-(phenylsulfonamido)phenyl)amino)pyrimidin-2-yl)amino)-4-methoxyphenyl)acrylamide]	410 nM	1 nM	2 nM
C=CC(=O)Nc1cc(Nc2ncc(F)c(Nc3ccccc3NS(=O)(=O)c3ccc(C)cc3)n2)c(OC)cc1N(C)CCN(C)C [Example 15, N-(2-((2-(dimethylamino)ethyl)(methyl)amino)-5-((5-fluoro-4-((2-((4-methylphenyl)sulfonamido)phenyl)amino)pyrimidin-2-yl)amino)-4-methoxyphenyl)acrylamide]	1200 nM	10 nM	10 nM
C=CC(=O)Nc1cc(Nc2ncc(Cl)c(Nc3ccccc3NS(C)(=O)=O)n2)c(OC)cc1N(C)CCN1CCCCC1 [Example 23, N-(5-((5-chloro-4-((2-(methylsulfonamido)phenyl)amino)pyrimidin-2-yl)amino)-4-methoxy-2-(methyl(2-(piperidin-1-yl)ethyl)amino)phenyl)acrylamide]	30 nM	< 1 nM	3 nM
COc1cc(N2CCOCC2)c(NC(=O)/C=C/CN(C)C)cc1Nc1ncc(Cl)c(Nc2ccccc2NS(C)(=O)=O)n1 [Example 26, (E)-N-(5-((5-chloro-4-((2-(methylsulfonamido)phenyl)amino)pyrimidin-2-yl)amino)-4-methoxy-2-morpholinophenyl)-4-(dimethylamino)buten-2-amide]	80 nM	4 nM	200 nM
COc1cc(N2CCN(C)CC2)c(NC(=O)/C=C/CN(C)C)cc1Nc1ncc(Cl)c(Nc2ccccc2NS(C)(=O)=O)n1 [Example 27, (E)-N-(5-((5-chloro-4-((2-(methylsulfonamido)phenyl)amino)pyrimidin-2-yl)amino)-4-methoxy-2-(4-methylpiperazin-1-yl)phenyl)-4-(dimethylamino)buten-2-amide]	30 nM	3 nM	9 nM
COc1cc(N(C)CCN(C)C)c(NC(=O)/C=C/CN(C)C)cc1Nc1ncc(Cl)c(Nc2ccccc2NS(C)(=O)=O)n1 [Example 28, (E)-N-(5-((5-chloro-4-((2-(methylsulfonamido)phenyl)amino)pyrimidin-2-yl)amino)-2-((2-(dimethylamino)ethyl)(methyl)amino)-4-methoxyphenyl)-4-(dimethylamino)buten-2-amide]	70 nM	< 1 nM	8 nM
C=CC(=O)Nc1cc(Nc2ncc(Cl)c(Nc3cccc(Cl)c3NS(C)(=O)=O)n2)c(OC)cc1N(C)CCN(C)C [Example 34, N-(5-((5-chloro-4-((3-chloro-2-(methylsulfonamido)phenyl)amino)pyrimidin-2-yl)amino)-2-((2-(dimethylamino)ethyl)(methyl)amino)-4-methoxyphenyl)acrylamide]	20 nM	< 1 nM	1 nM
C=CC(=O)Nc1cc(Nc2ncc(Cl)c(Nc3cccc(CC)c3NS(=O)(=O)CC)n2)c(OC)cc1N(C)CCN(C)C [Example 42, N-(5-((5-chloro-4-((3-ethyl-2-(ethylsulfonamido)phenyl)amino)pyrimidin-2-yl)amino)-2-((2-(dimethylamino)ethyl)(methyl)amino)-4-methoxyphenyl)acrylamide]	6 nM	< 1 nM	< 1 nM
C=CC(=O)Nc1cc(Nc2ncc(Cl)c(Nc3ccc(C)c(C)c3NS(C)(=O)=O)n2)c(OC)cc1N(C)CCN(C)C [Example 44, N-(5-((5-chloro-4-((3,4-dimethyl-2-(methylsulfonamido)phenyl)amino)pyrimidin-2-yl)amino)-2-((2-(dimethylamino)ethyl)(methyl)amino)-4-methoxyphenyl)acrylamide]	6 nM	< 1 nM	< 1 nM

Second part, the molecule after the results:

IC50 (HER2 A775_G776insYVMA)	IC50 (EGFR del19)	IC50 (EGFR A763_Y764insFHEA)	Structure (SMILES)
920 nM	10 nM	20 nM	C=CC(=O)Nc1cc(Nc2nccc(Nc3ccccc3NS(=O)(=O)CCC)n2)c(OC)cc1N(C)CCN(C)C [Example 8, N-(2-((2-(dimethylamino)ethyl)(methyl)amino)-4-methoxy-5-((4-((2-(propylsulfonamido)phenyl)amino)pyrimidin-2-yl)amino)phenyl)acrylamide]
440 nM	< 1 nM	10 nM	C=CC(=O)Nc1cc(Nc2nccc(Nc3ccccc3NS(=O)(=O)CC)n2)c(OC)cc1N(C)CCN(C)C [Example 10, N-(2-((2-(dimethylamino)ethyl)(methyl)amino)-5-((4-((2-(ethylsulfonamido)phenyl)amino)pyrimidin-2-yl)amino)-4-methoxyphenyl)acrylamide]
69 nM	< 1 nM	4 nM	C=CC(=O)Nc1cc(Nc2ncc(F)c(Nc3ccccc3NS(=O)(=O)CC)n2)c(OC)cc1N(C)CCN(C)C [Example 12, N-(2-((2-(dimethylamino)ethyl)(methyl)amino)-5-((4-((2-(ethylsulfonamido)phenyl)amino)-5-fluoropyrimidin-2-yl)amino)-4-methoxyphenyl)acrylamide]
140 nM	2 nM	10 nM	C=CC(=O)Nc1cc(Nc2ncc(F)c(Nc3ccccc3NS(=O)(=O)CCC)n2)c(OC)cc1N(C)CCN(C)C [Example 13, N-(2-((2-(dimethylamino)ethyl)(methyl)amino)-5-((5-fluoro-4-((2-(propylsulfonamido)phenyl)amino)pyrimidin-2-yl)amino)-4-methoxyphenyl)acrylamide]
1100 nM	10 nM	20 nM	C=CC(=O)Nc1cc(Nc2ncc(C)c(Nc3ccccc3NS(=O)(=O)c3ccc(C)cc3)n2)c(OC)cc1N(C)CCN(C)C [Example 17, N-(2-((2-(dimethylamino)ethyl)(methyl)amino)-4-methoxy-5-((5-methyl-4-((2-((4-methylphenyl)sulfonamido)phenyl)amino)pyrimidin-2-yl)amino)phenyl)acrylamide]
110 nM	< 1 nM	7 nM	C=CC(=O)Nc1cc(Nc2ncc(C)c(Nc3ccccc3NS(=O)(=O)CCC)n2)c(OC)cc1N(C)CCN(C)C [Example 18, N-(2-((2-(dimethylamino)ethyl)(methyl)amino)-4-methoxy-5-((5-methyl-4-((2-(propylsulfonamido)phenyl)amino)pyrimidin-2-yl)amino)phenyl)acrylamide]
34 nM	< 1 nM	3 nM	C=CC(=O)Nc1cc(Nc2ncc(C)c(Nc3ccccc3NS(=O)(=O)CC)n2)c(OC)cc1N(C)CCN(C)C [Example 19, N-(2-((2-(dimethylamino)ethyl)(methyl)amino)-5-((4-((2-(ethylsulfonamido)phenyl)amino)-5-methylpyrimidin-2-yl)amino)-4-methoxyphenyl)acrylamide]
370 nM	2 nM	6 nM	C=CC(=O)Nc1cc(Nc2ncc(C)c(Nc3ccccc3NS(=O)(=O)c3ccccc3)n2)c(OC)cc1N(C)CCN(C)C [Example 20, N-(2-((2-(dimethylamino)ethyl)(methyl)amino)-4-methoxy-5-((5-methyl-4-((2-(phenylsulfonamido)phenyl)amino)pyrimidin-2-yl)amino)phenyl)acrylamide]
